# Measured values published in PubChem BioAssay (NCI).
#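 These data come from cells grown in 96-well plates and exposed to compound for 48 hours at five concentrations. GI50 = concentration required for 50% inhibition of growth. TGI: total growth inhibition.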
# Tests used:
# Experiment in all cases: DTP human tumour cell line panel, 48 h
# [1] = tested on: 786-0 renal
# [2] = tested on: A498 renal
# [3] = tested on: A549 NSCLC
# [4] = tested on: ACHN renal
# [5] = tested on: BT-549 breast
# [6] = tested on: CAKI-1 renal
# [7] = tested on: COLO 205 colon
# [8] = tested on: DU-145 prostate
# [9] = tested on: EKVX NSCLC
# [10] = tested on: HCC-2998 colon
# [11] = tested on: HCT-116 colon
# [12] = tested on: HCT-15 colon
# [13] = tested on: HOP-62 NSCLC
# [14] = tested on: HOP-92 NSCLC
# [15] = tested on: HS 578T breast
# [16] = tested on: HT29 colon
# [17] = tested on: IGROV1 ovarian
# [18] = tested on: KM12 colon
# [19] = tested on: LOX IMVI melanoma
# [20] = tested on: M14 melanoma
# [21] = tested on: MALME-3M melanoma
# [22] = tested on: MCF7 breast
# [23] = tested on: MDA-MB-231 breast
# [24] = tested on: MDA-MB-435
# [25] = tested on: NCI-H226 lung
# [26] = tested on: NCI-H23 lung
# [27] = tested on: NCI-H460 lung
# [28] = tested on: NCI-H522 lung
# [29] = tested on: NCI/ADR-RES ovarian
# [30] = tested on: OVCAR-3 ovarian
# [31] = tested on: OVCAR-4 ovarian
# [32] = tested on: OVCAR-5 ovarian
# [33] = tested on: OVCAR-8 ovarian
# [34] = tested on: PC-3 prostate
# [35] = tested on: RPMI-8226 leukemia
# [36] = tested on: RXF 393 renal
# [37] = tested on: SF-268 CNS
# [38] = tested on: SF-295 CNS
# [39] = tested on: SF-539 CNS
# [40] = tested on: SK-MEL-2 melanoma
# [41] = tested on: SK-MEL-28 melanoma
# [42] = tested on: SK-MEL-5 melanoma
# [43] = tested on: SK-OV-3 ovarian
# [44] = tested on: SN12C renal
# [45] = tested on: SNB-19 CNS
# [46] = tested on: SNB-75 CNS
# [47] = tested on: SW-620 colon
# [48] = tested on: T-47D breast
# [49] = tested on: TK-10 renal
# [50] = tested on: U251 CNS
# [51] = tested on: UACC-257 melanoma
# [52] = tested on: UACC-62 melanoma
# [53] = tested on: UO-31 renal
smiles,measurement,setting,value
N#CC(I)CS(=O)(=O)c1ccccc1 (stereo unspecified),GI50,[1],19.1 µM
same,TGI,[1],33.2 µM
same,GI50,[2],35.4 µM
same,TGI,[2],> 100 µM
same,GI50,[3],22.7 µM
same,TGI,[3],47.6 µM
same,GI50,[4],1.87 µM
same,TGI,[4],3.35 µM
same,GI50,[5],18.8 µM
same,TGI,[5],32.9 µM
same,GI50,[6],1.61 µM
same,TGI,[6],3.32 µM
same,GI50,[7],2.03 µM
same,TGI,[7],3.86 µM
same,GI50,[8],17.2 µM
same,TGI,[8],31.3 µM
same,GI50,[9],19.4 µM
same,TGI,[9],44.2 µM
same,GI50,[10],17.7 µM
same,TGI,[10],31.8 µM
same,GI50,[11],1.66 µM
same,TGI,[11],3.11 µM
same,GI50,[12],5.48 µM
same,TGI,[12],19.4 µM
same,GI50,[13],19.3 µM
same,TGI,[13],38.4 µM
same,GI50,[14],13.2 µM
same,TGI,[14],26.9 µM
same,GI50,[15],26.5 µM
same,TGI,[15],61.4 µM
same,GI50,[16],2 µM
same,TGI,[16],4.51 µM
same,GI50,[17],16.2 µM
same,TGI,[17],39.8 µM
same,GI50,[18],18.9 µM
same,TGI,[18],34.4 µM
same,GI50,[19],14.8 µM
same,TGI,[19],28.3 µM
same,GI50,[20],14.6 µM
same,TGI,[20],28.4 µM
same,GI50,[21],2.13 µM
same,TGI,[21],4.27 µM
same,GI50,[22],16.7 µM
same,TGI,[22],39.9 µM
same,GI50,[23],17.3 µM
same,TGI,[23],33.9 µM
same,GI50,[24],17.6 µM
same,TGI,[24],34.5 µM
same,GI50,[25],17.9 µM
same,TGI,[25],37.8 µM
same,GI50,[26],16.7 µM
same,TGI,[26],31.7 µM
same,GI50,[27],21.6 µM
same,TGI,[27],42.4 µM
same,GI50,[28],1.34 µM
same,TGI,[28],2.78 µM
same,GI50,[29],17.5 µM
same,TGI,[29],35.1 µM
same,GI50,[30],2.03 µM
same,TGI,[30],3.55 µM
same,GI50,[31],2.01 µM
same,TGI,[31],4.69 µM
same,GI50,[32],18.9 µM
same,TGI,[32],33.6 µM
same,GI50,[33],17.4 µM
same,TGI,[33],32.2 µM
same,GI50,[34],17 µM
same,TGI,[34],32.5 µM
same,GI50,[35],17.5 µM
same,TGI,[35],41.4 µM
same,GI50,[36],4.1 µM
same,TGI,[36],13 µM
same,GI50,[37],18.8 µM
same,TGI,[37],35.2 µM
same,GI50,[38],> 100 µM
same,TGI,[38],> 100 µM
same,GI50,[39],18.2 µM
same,TGI,[39],32.5 µM
same,GI50,[40],17.6 µM
same,TGI,[40],33.2 µM
same,GI50,[41],16.6 µM
same,TGI,[41],30.7 µM
same,GI50,[42],17.7 µM
same,TGI,[42],31.9 µM
same,GI50,[43],> 100 µM
same,TGI,[43],> 100 µM
same,GI50,[44],16.1 µM
same,TGI,[44],29.9 µM
same,GI50,[45],> 100 µM
same,TGI,[45],> 100 µM
same,GI50,[46],15.6 µM
same,TGI,[46],36 µM
same,GI50,[47],1.78 µM
same,TGI,[47],3.49 µM
same,GI50,[48],18.4 µM
same,TGI,[48],42.6 µM
same,GI50,[49],1.75 µM
same,TGI,[49],3.3 µM
same,GI50,[50],> 100 µM
same,TGI,[50],> 100 µM
same,GI50,[51],17 µM
same,TGI,[51],31.2 µM
same,GI50,[52],16.6 µM
same,TGI,[52],30.3 µM
same,GI50,[53],12 µM
same,TGI,[53],25.8 µM
